The supplement of paper PMC8960247
Where a name gives a salt, the structure may show the parent alone. ± gives the standard error.

Key:
621-103 (TSC2-rescued) = test: relative viability vs DMSO; higher = less cytotoxic; settings: serum: 10% FBS, 72 h
621-102 (TSC2-deficient) = test: as above; settings: serum: 10% FBS, 72 h
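Also: immortalized renal angiomyolipoma cells stably carrying empty vector or TSC2, dosed in 384-well plates in DMEM, viability normalized to vehicle-treated wells within each plate.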

| SMILES | relative viability (621-103 (TSC2-rescued); 0.0001 µM) | relative viability (621-103 (TSC2-rescued); 0.001 µM) | relative viability (621-103 (TSC2-rescued); 0.01 µM) | relative viability (621-103 (TSC2-rescued); 0.1 µM) | relative viability (621-103 (TSC2-rescued); 1 µM) | relative viability (621-103 (TSC2-rescued); 10 µM) | relative viability (621-102 (TSC2-deficient); 0.0001 µM) | relative viability (621-102 (TSC2-deficient); 0.001 µM) | relative viability (621-102 (TSC2-deficient); 0.01 µM) | relative viability (621-102 (TSC2-deficient); 0.1 µM) | relative viability (621-102 (TSC2-deficient); 1 µM) | relative viability (621-102 (TSC2-deficient); 10 µM) |
| --- | --- | --- | --- | --- | --- | --- | --- | --- | --- | --- | --- | --- |
| Oc1ccc(-c2nc(-c3ccc(F)cc3)c(-c3ccncc3)[nH]2)cc1 | 99.5 ± 0.91% | 99.83 ± 0.79% | 99.49 ± 0.82% | 97.7 ± 1.4% | 98.4 ± 1.1% | 98.8 ± 1.3% | 104 ± 3.7% | 106.7 ± 0.78% | 104 ± 3.6% | 104.8 ± 0.31% | 103.8 ± 0.12% | 105 ± 2.4% |
| C=CC(=O)Nc1cccc(Oc2nc(Nc3ccc(N4CCN(C)CC4)cc3OC)ncc2Cl)c1 [WZ4002] | 100.2 ± 0.22% | 101 ± 1.6% | 100.1 ± 0.83% | 101.6 ± 0.99% | 101 ± 2.2% | 32.5 ± 1.5% | 110 ± 1.7% | 100 ± 6.1% | 104 ± 4.2% | 101 ± 3.6% | 99 ± 2% | 51.6 ± 2% |
| Cc1csc(-c2nnc(Nc3ccc(Oc4ncccc4-c4ccnc(N)n4)cc3)c3ccccc23)c1 [AMG900] | 88.9 ± 4.5% | 77.64 ± 0.67% | 71.5 ± 4.7% | 77.7 ± 1.1% | 65.8 ± 2.5% | 73.6 ± 1.5% | 84.8 ± 2% | 74.8 ± 1.5% | 75.4 ± 0.76% | 83.24 ± 0.43% | 78.91 ± 0.56% | 76 ± 2.4% |
| CN(C)C(=O)C(CCN1CCC(O)(c2ccc(Cl)cc2)CC1)(c1ccccc1)c1ccccc1 [Loperamide HCl] | 91.7 ± 4.4% | 84.8 ± 2.2% | 97.2 ± 1.4% | 98.2 ± 1.8% | 92.17 ± 0.64% | 59.5 ± 0.85% | 112.8 ± 0.39% | 107 ± 1.7% | 99.2 ± 2.1% | 109 ± 4.1% | 106 ± 4.2% | 82.5 ± 1.3% |
| O=C(O)/C=C/c1ccc(Cn2ccnc2)cc1 [Ozagrel] | 107 ± 1.8% | 112 ± 1.7% | 98.4 ± 2.8% | 104 ± 3.1% | 106 ± 2.4% | 103 ± 1.1% | 100 ± 3.7% | 108 ± 3.7% | 105 ± 2.5% | 110 ± 5.1% | 102.8 ± 0.53% | 95.1 ± 4.6% |
| CCNC(=O)c1noc(-c2cc(C(C)C)c(O)cc2O)c1-c1ccc(CN2CCOCC2)cc1 [NVP-AUY922] | 17.5 ± 0.57% | 6.795 ± 0.067% | 6.22 ± 0.57% | 5.21 ± 0.31% | 4.92 ± 0.055% | 6.99 ± 0.21% | 35.4 ± 3.1% | 33 ± 1.4% | 22.2 ± 0.39% | 20.32 ± 0.026% | 23 ± 0.25% | 21.6 ± 1.3% |
| O=c1cc(-c2cccc3c2Sc2ccccc2S3)oc(N2CCOCC2)c1 | 78.3 ± 1.3% | 90.23 ± 0.51% | 85 ± 3.9% | 82.9 ± 0.99% | 77.06 ± 0.31% | 69.3 ± 3.3% | 101 ± 3% | 99.73 ± 0.79% | 98.3 ± 3.2% | 94.4 ± 1.1% | 100 ± 2.1% | 80.3 ± 0.73% |
| CCCCCCOC(=O)NC(=N)c1ccc(NCc2nc3cc(C(=O)N(CCC(=O)OCC)c4ccccn4)ccc3n2C)cc1 [BIBR-1048] | 82.2 ± 13% | 80.5 ± 6.2% | 88.7 ± 4.1% | 92.9 ± 8.5% | 72.9 ± 5.4% | 69.4 ± 1.5% | 78.58 ± 0.35% | 83.8 ± 4.3% | 90.2 ± 3% | 96.8 ± 4.4% | 107 ± 6.2% | 87.6 ± 3% |
| CC(=O)O[C@H]1C[C@@H]2CC[C@@H]3[C@H](CC[C@@]4(C)[C@H]3C[C@H]([N+]3(C)CCCCC3)[C@@H]4OC(C)=O)[C@@]2(C)C[C@@H]1[N+]1(C)CCCCC1 [Pancuronium bromide] | 97.7 ± 0.99% | 104 ± 1.3% | 101 ± 2.5% | 95 ± 3.6% | 93.8 ± 4.2% | 51.35 ± 0.38% | 83.8 ± 6.4% | 95.36 ± 0.26% | 93.6 ± 3.5% | 91.4 ± 3.3% | 84.1 ± 1.2% | 52.5 ± 0.78% |
| CC(C)(C(=O)NCC(F)(F)C(F)(F)F)C(=O)N[C@@H]1C(=O)Nc2ccccc2-c2ccccc21 | 102.1 ± 0.81% | 104 ± 1.3% | 104.2 ± 0.26% | 106 ± 1.1% | 103.7 ± 0.41% | 101.8 ± 0.77% | 110 ± 1.1% | 115 ± 1.2% | 119.5 ± 0.86% | 113.8 ± 0.66% | 114.3 ± 1.1% | 113 ± 1.8% |
| COC(=O)C1=C(C)NC(C)=C(C(=O)OCCN2CCN(C(c3ccccc3)c3ccccc3)CC2)C1c1cccc([N+](=O)[O-])c1 (stereo not drawn) [Manidipine] | 109 ± 3.1% | 108 ± 2.9% | 106 ± 2% | 108 ± 2.5% | 103 ± 2.2% | 101 ± 6.2% | 101 ± 4% | 102 ± 1.7% | 99.9 ± 1.5% | 97.7 ± 1.7% | 93.8 ± 1.4% | 96.95 ± 0.61% |
| CC1(C)CCC(c2ccc(Cl)cc2)=C(CN2CCN(c3ccc(C(=O)NS(=O)(=O)c4ccc(N[C@H](CCN5CCOCC5)CSc5ccccc5)c(S(=O)(=O)C(F)(F)F)c4)cc3)CC2)C1 [ABT-263 (Navitoclax)] | 100.9 ± 0.9% | 98.3 ± 2.4% | 98 ± 1.2% | 98.6 ± 2% | 97.65 ± 0.41% | 55.33 ± 0.17% | 114 ± 3.6% | 123 ± 7.2% | 116 ± 4.2% | 104 ± 3.3% | 118.5 ± 0.83% | 68.4 ± 0.82% |
| COc1cc(OC)c(OC)cc1C=O [Asaraldehyde] | 101 ± 2% | 103 ± 2% | 94.8 ± 1.3% | 99.98 ± 0.77% | 102.5 ± 0.13% | 96.06 ± 0.3% | 112 ± 3.5% | 116.4 ± 0.26% | 109.6 ± 0.37% | 96.2 ± 1.4% | 113.4 ± 0.62% | 92.3 ± 1.9% |
| Clc1ccc(C2(c3ccc(-c4cn[nH]c4)cc3)CCNCC2)cc1 [AT7867] | 89.1 ± 5.1% | 90.1 ± 2.4% | 90.2 ± 4.9% | 94.3 ± 6.7% | 75.1 ± 5.7% | 18.5 ± 2.6% | 98.8 ± 5.5% | 102 ± 6.2% | 105 ± 4.8% | 95.8 ± 1.7% | 85.23 ± 0.13% | 49.2 ± 3.2% |
| COc1ccc2[nH]c([S@@+]([O-])Cc3ncc(C)c(OC)c3C)nc2c1 [Esomeprazole sodium (Nexium I.V.)] | 111 ± 0.41% | 99.3 ± 0.93% | 101.7 ± 0.45% | 112 ± 4% | 102 ± 2.5% | 86.24 ± 0.28% | 93.6 ± 1.3% | 107 ± 6.9% | 107 ± 3.4% | 97.9 ± 3.1% | 91.1 ± 1% | 88.632 ± 0.085% |
| O=C(NC[C@H](O)CO)c1ccncc1Nc1ccc(I)cc1F | 101.8 ± 0.97% | 104 ± 1.9% | 105 ± 1.4% | 103.5 ± 0.29% | 99.919 ± 0.052% | 78.4 ± 1.2% | 100.3 ± 0.48% | 92 ± 13% | 101 ± 3.2% | 97.01 ± 0.18% | 90.5 ± 2% | 55.7 ± 0.91% |
| CCc1nc(N)nc(N)c1-c1ccc(Cl)cc1 [Pyrimethamine] | 105 ± 2% | 105.5 ± 0.94% | 104 ± 3.5% | 101 ± 2% | 104.3 ± 0.2% | 102 ± 4.4% | 99.7 ± 4.9% | 108.7 ± 0.4% | 95.6 ± 3.3% | 95.7 ± 2.5% | 100 ± 1.8% | 93.14 ± 0.75% |
| CCOC(=O)[C@H](CCc1ccccc1)N[C@@H](C)C(=O)N1[C@H](C(=O)O)C[C@@H]2CCC[C@@H]21 [Ramipril] | 104 ± 5.8% | 104 ± 2.4% | 92.3 ± 11% | 106 ± 0.85% | 102 ± 5% | 111 ± 1.6% | 107.5 ± 1% | 108 ± 2.2% | 102.3 ± 0.74% | 106 ± 4.6% | 108 ± 2.3% | 106.9 ± 0.7% |
| CC(C)C[C@@H](C=O)NC(=O)[C@H](CC(C)C)NC(=O)[C@H](CC(C)C)NC(=O)OCc1ccccc1 [MG-132] | 99.8 ± 3.3% | 93.4 ± 2.7% | 95.3 ± 4.2% | 53.7 ± 8.3% | 2 ± 0.3% | 1.393 ± 0.0089% | 104 ± 2.3% | 102 ± 4% | 99.9 ± 1.6% | 94.63 ± 0.69% | 4.41 ± 0.73% | 1.52 ± 0.059% |
